Measurements taken from patent publication US9757380B2 (Southern Research Institute, priority 2007, dated 2017).

Legend:
Format in all cases: in vivo, mice
tumor models = assay: Xenograph models combined with radiation therapy (overall statement); conditions: compared with clofarabine
Excerpt: (§1) Xenograph models including DU-145 (prostate), NCI-H460 NSCL (lung), SF-295 CNS (glioblastoma), SR475HN (head and neck), PANC-1 (pancreatic), and HCT-116 (colon) are employed to study the effect of compounds according to the instant disclosure combined with radiation therapy. Mice are implanted with tumor fragments subcutaneously from an in vivo passage and the tumors are allowed to grow. Mice with tumors in a designated size range are selected for the studies.

DU-145 (prostate) = assay: DU-145 prostate xenograph model, clofarabine combined with radiation; conditions: clofarabine 30 mg/kg/dose, ip, d. 13-24, radiation 2 Gy
Excerpt: as §1

[1] = tested on: SF-295 CNS (glioblastoma); assay: SF-295 CNS glioblastoma xenograph model, clofarabine combined with radiation; conditions: clofarabine 30 mg/kg/dose, ip, d. 8-17, radiation 3 Gy, d. 8, 11, 14, 17
Excerpt: as §1

SR475HN (head and neck) = assay: SR475HN head and neck xenograph model, clofarabine combined with radiation; conditions: SR475 head & neck, clofarabine 30 mg/kg/dose, ip, d. 19-30, radiation 2 Gy, d. 19-23, 26-30
Excerpt: as §1

PANC-1 (pancreatic) = assay: PANC-1 pancreatic xenograph model, clofarabine combined with radiation; conditions: clofarabine 30 mg/kg/dose, ip, d. 12-23, radiation 2 Gy
Excerpt: as §1

NCI-H460 NSCL (lung) = assay: NCI-H460 NSCL lung xenograph model, clofarabine combined with radiation; conditions: clofarabine 30 mg/kg/dose, ip, d. 8-17, radiation 3 Gy
Excerpt: as §1

HCT-116 (colon) = assay: HCT-116 colon xenograph model, clofarabine combined with radiation; conditions: clofarabine 30mg/kg/dose, ip, d. 13-24, radiation 2 Gy
Excerpt: as §1

| SMILES | radiosensitizing capacity (tumor models) | Tumor-Free Survivors/Total (DU-145 (prostate); d. 13-17, 20-24) | Growth Delay (T-C, days) (DU-145 (prostate); d. 13-17, 20-24, combination: clofarabine first, radiation 1 hour later) [days] | Growth Delay (T-C, days) [1] [days] | Tumor-Free Survivors/Total [1] | Tumor-Free Survivors/Total (SR475HN (head and neck)) | Growth Delay (T-C, days) (SR475HN (head and neck); based on 2 tumor doublings) [days] | Tumor-Free Survivors/Total (PANC-1 (pancreatic); d. 12-16, 19-23) | Growth Delay (T-C, days) (PANC-1 (pancreatic); d. 12-16, 19-23, based on 2 tumor doublings) [days] | Tumor-Free Survivors/Total (NCI-H460 NSCL (lung); d. 8, 11, 14, 17) | Growth Delay (T-C, days) (NCI-H460 NSCL (lung); d. 8, 11, 14, 17, based on time to 3 tumor doublings) [days] | Tumor-Free Survivors/Total (HCT-116 (colon); d. 13-17, 20-24) | Growth Delay (T-C, days) (HCT-116 (colon); d. 13-17, 20-24, based on 3 tumor doublings) [days] |
| --- | --- | --- | --- | --- | --- | --- | --- | --- | --- | --- | --- | --- | --- |
| Nc1ccn([C@@H]2O[C@H](CO)[C@@H](O)C2(F)F)c(=O)n1 [gemcitabine] | tracked with the clofarabine results | – | – | – | – | – | – | – | – | – | – | – | – |
| Nc1nc(Cl)nc2c1ncn2[C@@H]1O[C@H](CO)[C@@H](O)[C@@H]1F [Clofarabine] | – | 0/6 | 4.3 | -0.8 | 0/6 | 0/6 | 18.2 | 0/6 | 17.2 | 0/6 | 4.6 | 0/6 | 24.2 |
